Assay results: ChEMBL document CHEMBL1201862, “PubChem BioAssay data set” (2004)
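Protocol summary: plate cells (96-well), add compound at 5 concentrations, incubate 48 h, interpolate endpoints linearly. GI50 = concentration required for 50% inhibition of growth.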 The source made the active and inactive calls. Cut-off read from the data, not from the text of the source: active = GI50 up to about 1.1 µM and inactive = higher.

Key:
Test in all cases: NCI anticancer screen, dose series, 48 h
ACHN = system: ACHN
RXF 393 = system: RXF 393
NCI-H460 = system: NCI-H460
A549 = system: A549
SF-295 = system: SF-295
786-0 = system: 786-0
HCT-15 = system: HCT-15
LOX IMVI = system: LOX IMVI
OVCAR-8 = system: OVCAR-8
SNB-19 = system: SNB-19
OVCAR-4 = system: OVCAR-4
TK-10 = system: TK-10
RPMI-8226 = system: RPMI-8226
MDA-N = system: MDA-N
T47D = system: T47D
NCI-H522 = system: NCI-H522
M14 = system: M14
HL-60 = system: HL-60
DU-145 = system: DU-145

SMILES | GI50 (ACHN) | GI50 (RXF 393) | GI50 (NCI-H460) | GI50 (A549) | GI50 (SF-295) | GI50 (786-0) | GI50 (HCT-15) [µM] | GI50 (LOX IMVI) | GI50 (OVCAR-8) | GI50 (SNB-19) | GI50 (OVCAR-4) | GI50 (TK-10) | GI50 (RPMI-8226) | GI50 (MDA-N) | GI50 (T47D) | GI50 (NCI-H522) | GI50 (M14) | GI50 (HL-60) | GI50 (DU-145)
CN1C(=O)c2ccccc2C(O)(c2ccccc2)C1(O)c1ccccc1 (stereo not given) | > 100 µM (inactive) | 83.9 µM (inactive) | 19.2 µM (inactive) | 69.5 µM (inactive) | > 100 µM (inactive) | > 100 µM (inactive) | > 100 | > 100 µM (inactive) | > 100 µM (inactive) | > 100 µM (inactive) | 72.8 µM (inactive) | 68.7 µM (inactive) | 56.4 µM (inactive) | > 100 µM (inactive) | 61.2 µM (inactive) | > 100 µM (inactive) | > 100 µM (inactive) |  | 
COC(=O)Cc1c([C@H]2[C@H](CC(=O)OC)c3ccccc3N2S(=O)(=O)c2ccc(C)cc2)[nH]c2ccccc12 | > 100 µM (inactive) | > 100 µM (inactive) | > 100 µM (inactive) | > 100 µM (inactive) | > 100 µM (inactive) | > 100 µM (inactive) | > 100 | > 100 µM (inactive) | > 100 µM (inactive) | > 100 µM (inactive) | > 100 µM (inactive) | > 100 µM (inactive) | 7 µM (inactive) | > 100 µM (inactive) |  | > 28.4 µM (inactive) | > 100 µM (inactive) | > 100 µM (inactive) | > 100 µM (inactive)
Cc1ccc(-n2c(C)n[nH]c2=O)cc1 | > 100 µM (inactive) | > 100 µM (inactive) |  | > 100 µM (inactive) | > 100 µM (inactive) | > 100 µM (inactive) | > 100 | > 100 µM (inactive) | > 100 µM (inactive) | > 100 µM (inactive) |  | > 100 µM (inactive) | > 100 µM (inactive) | > 100 µM (inactive) |  | > 100 µM (inactive) | > 100 µM (inactive) |  | > 100 µM (inactive)
COc1c2occc2cc2ccc(=O)oc12 [METHOXSALEN] | > 100 µM (inactive) |  | 62.7 µM (inactive) | > 100 µM (inactive) | > 100 µM (inactive) | > 100 µM (inactive) | > 100 | > 100 µM (inactive) |  | > 100 µM (inactive) | > 100 µM (inactive) | > 100 µM (inactive) | > 100 µM (inactive) | > 100 µM (inactive) | > 100 µM (inactive) |  | > 100 µM (inactive) | 90.2 µM (inactive) | > 100 µM (inactive)
O=c1ccc(-c2ccc(-n3ccnc3)cc2)nn1CCO | > 100 µM (inactive) | > 100 µM (inactive) | > 100 µM (inactive) | > 100 µM (inactive) | > 100 µM (inactive) | > 100 µM (inactive) | > 100 |  | > 100 µM (inactive) | > 100 µM (inactive) | > 100 µM (inactive) | > 100 µM (inactive) | > 100 µM (inactive) | > 100 µM (inactive) |  | > 100 µM (inactive) | > 100 µM (inactive) | > 100 µM (inactive) | > 100 µM (inactive)
NS(=O)(=O)c1ccc(NS(=O)(=O)c2ccc(NC(=O)N(c3ccccc3)c3ccccc3)cc2)cc1 | > 100 µM (inactive) | 21.9 µM (inactive) | 65.6 µM (inactive) | > 100 µM (inactive) | 35.7 µM (inactive) | 68.9 µM (inactive) | > 100 | 34.4 µM (inactive) | > 100 µM (inactive) | > 100 µM (inactive) | 45.2 µM (inactive) | 50.4 µM (inactive) | 24.8 µM (inactive) | 32.3 µM (inactive) | 48 µM (inactive) | 30.5 µM (inactive) | 41.3 µM (inactive) |  | 43.3 µM (inactive)
Cc1cc(Nc2ccc(NS(C)(=O)=O)cc2)c2c(ccc3[nH]ccc32)n1 | 22.8 µM (inactive) |  | 19.3 µM (inactive) | 33.3 µM (inactive) | 22.3 µM (inactive) | 20.4 µM (inactive) | > 100 | 18.5 µM (inactive) | 22.9 µM (inactive) | 18.1 µM (inactive) | 12.4 µM (inactive) | 28.6 µM (inactive) | 20.6 µM (inactive) | 17.6 µM (inactive) | 3.5 µM (inactive) | 9.35 µM (inactive) | 16.6 µM (inactive) |  | 18.8 µM (inactive)
Cc1ccc2c(c1)C(=O)/C(=C\c1ccccc1)CCS2(=O)=O | 11.4 µM (inactive) |  | 9.12 µM (inactive) | 12.9 µM (inactive) | 14.2 µM (inactive) | 11.2 µM (inactive) | 4.84 | 10.7 µM (inactive) | 11.6 µM (inactive) | 8.51 µM (inactive) | 12 µM (inactive) | 13.8 µM (inactive) |  | 16.9 µM (inactive) | 11.7 µM (inactive) | 4.36 µM (inactive) | 19.8 µM (inactive) | 0.303 µM (active) | 3.27 µM (inactive)
